Experimental data taken from ChEMBL document CHEMBL4371025, “Discovery and evaluation of novel FAAH inhibitors in neuropathic pain model” (Bioorg Med Chem Lett, 2019).

Columns and labels:
[1] = biological target: T1, Fatty-acid amide hydrolase 1 (Homo sapiens, UniProt O00519); assay: Inhibition of human transmembrane domain deficient FFAH expressed in Escherichia coli using AAMCA as substrate incubated for 1 min measured for 50 mins by fluorescence assay
T1 sequence (O00519 whole entry): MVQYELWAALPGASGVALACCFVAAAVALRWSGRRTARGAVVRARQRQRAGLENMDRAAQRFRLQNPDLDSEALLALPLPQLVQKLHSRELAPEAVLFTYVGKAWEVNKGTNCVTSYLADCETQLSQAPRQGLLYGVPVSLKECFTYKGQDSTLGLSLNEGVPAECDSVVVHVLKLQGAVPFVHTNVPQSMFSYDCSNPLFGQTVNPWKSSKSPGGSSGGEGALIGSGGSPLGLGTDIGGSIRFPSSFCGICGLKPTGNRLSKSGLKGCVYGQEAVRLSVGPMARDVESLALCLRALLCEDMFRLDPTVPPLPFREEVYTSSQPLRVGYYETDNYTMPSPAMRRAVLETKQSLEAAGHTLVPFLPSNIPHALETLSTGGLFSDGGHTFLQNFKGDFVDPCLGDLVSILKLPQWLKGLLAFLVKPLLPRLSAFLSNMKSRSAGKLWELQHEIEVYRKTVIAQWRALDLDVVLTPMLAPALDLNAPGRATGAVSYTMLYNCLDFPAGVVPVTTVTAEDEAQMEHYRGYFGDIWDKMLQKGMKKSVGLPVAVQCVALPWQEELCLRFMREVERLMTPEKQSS

[2] = Intrinsic metabolic stability in human liver microsomes assessed as metabolic turnover rate per mg protein at 1 uM preincubated for 5 mins followed by NADPH cofactor addition and measured after 30 mins by LC-MS/MS analysis; assay type: ADME, Microsome; details: 0.5 h
[3] = Volume of distribution at steady state in Sprague-Dawley rat at 3 mg/kg, iv administered as single dose by LC-MS/MS analysis; assay type: ADME, organism-based; details: in vivo, read-out: Vdss
[4] = Clearance in Sprague-Dawley rat at 3 mg/kg, iv administered as single dose by LC-MS/MS analysis; assay type: ADME, organism-based; details: in vivo
[5] = Elimination half life in Sprague-Dawley rat at 3 mg/kg, iv administered as single dose by LC-MS/MS analysis; assay type: ADME, organism-based; details: in vivo, read-out: beta t1/2 (converted)
[6] = Drug level in plasma of Sprague-Dawley rat at 10 mg/kg, po administered as single dose via gavage measured at 8 hrs by LC-MS/MS analysis; assay type: ADME, organism-based
[7] = Drug level in plasma of Sprague-Dawley rat at 10 mg/kg, po administered as single dose via gavage measured at 24 hrs by LC-MS/MS analysis; assay type: ADME, organism-based
[8] = Drug level in brain of Sprague-Dawley rat at 10 mg/kg, po administered as single dose via gavage measured at 2 hrs by LC-MS/MS analysis; assay type: ADME, organism-based; details: read-out: Drug uptake
[9] = Drug level in brain of Sprague-Dawley rat at 10 mg/kg, po administered as single dose via gavage measured at 4 hrs by LC-MS/MS analysis; assay type: ADME, organism-based; details: read-out: Drug uptake
[10] = Ratio of AUC (0 to 48 hrs) in brain to plasma of Sprague-Dawley rat at 10 mg/kg, po administered as single dose via gavage by LC-MS/MS analysis; assay type: ADME, organism-based; details: brain and plasma, read-out: Ratio AUC
[11] = biological target: T2, Fatty-acid amide hydrolase 1 (Rattus norvegicus, UniProt P97612); assay: Inhibition of rat FFAH expressed in Escherichia coli using AAMCA as substrate incubated for 1 min measured for 50 mins by fluorescence assay
T2 sequence (P97612 whole entry): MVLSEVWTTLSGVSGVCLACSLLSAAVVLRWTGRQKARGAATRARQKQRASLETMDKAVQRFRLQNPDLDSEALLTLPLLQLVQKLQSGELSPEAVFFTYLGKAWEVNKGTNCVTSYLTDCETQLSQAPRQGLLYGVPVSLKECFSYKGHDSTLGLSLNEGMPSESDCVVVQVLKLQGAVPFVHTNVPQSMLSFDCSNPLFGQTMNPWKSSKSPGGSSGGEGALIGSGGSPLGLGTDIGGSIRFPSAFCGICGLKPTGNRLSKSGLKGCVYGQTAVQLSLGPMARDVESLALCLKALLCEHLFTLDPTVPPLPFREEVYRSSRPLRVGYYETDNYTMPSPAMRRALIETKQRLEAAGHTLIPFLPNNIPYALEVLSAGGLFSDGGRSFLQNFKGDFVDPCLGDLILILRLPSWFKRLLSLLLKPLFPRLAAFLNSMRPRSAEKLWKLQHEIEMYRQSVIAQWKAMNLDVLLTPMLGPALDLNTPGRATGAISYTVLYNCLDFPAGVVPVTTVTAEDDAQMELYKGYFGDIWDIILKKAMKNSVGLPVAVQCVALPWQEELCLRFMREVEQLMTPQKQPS

CYP2C9 [12] = assay: Selectivity ratio of IC50 for CYP2C9 in human liver microsomes to IC50 for human transmembrane domain deficient FFAH expressed in Escherichia coli; assay type: toxicity; details: read-out: Ratio IC50
CYP2D6 [13] = assay: Selectivity ratio of IC50 for CYP2D6 in human liver microsomes to IC50 for human transmembrane domain deficient FFAH expressed in Escherichia coli; assay type: toxicity; details: read-out: Ratio IC50
CYP3A4 [14] = assay: Selectivity ratio of IC50 for CYP3A4 in human liver microsomes using testosterone as substrate to IC50 for human transmembrane domain deficient FFAH expressed in Escherichia coli; assay type: toxicity; details: probe testosterone, read-out: Ratio IC50
CYP3A4 [15] = assay: Selectivity ratio of IC50 for CYP3A4 in human liver microsomes using midazolam as substrate to IC50 for human transmembrane domain deficient FFAH expressed in Escherichia coli; assay type: toxicity; details: probe midazolam, read-out: Ratio IC50
CYP2C9 [16] = assay: Selectivity ratio of IC50 for CYP2C9 in human liver microsomes to IC50 for rat FFAH expressed in Escherichia coli; assay type: toxicity; details: read-out: Ratio IC50
CYP2D6 [17] = assay: Selectivity ratio of IC50 for CYP2D6 in human liver microsomes to IC50 for rat FFAH expressed in Escherichia coli; assay type: toxicity; details: read-out: Ratio IC50
CYP3A4 [18] = assay: Selectivity ratio of IC50 for CYP3A4 in human liver microsomes using testosterone as substrate to IC50 for rat FFAH expressed in Escherichia coli; assay type: toxicity; details: probe testosterone, read-out: Ratio IC50
CYP3A4 [19] = assay: Selectivity ratio of IC50 for CYP3A4 in human liver microsomes using midazolam as substrate to IC50 for rat FFAH expressed in Escherichia coli; assay type: toxicity; details: probe midazolam, read-out: Ratio IC50
[20] = Selectivity ratio of IC50 for MAGL (unknown origin) to IC50 for rat FFAH expressed in Escherichia coli; assay type: toxicity
[21] = Drug uptake in Sprague-Dawley rat brain at 3 mg/kg, iv or 10 mg/kg, po administered as single dose via gavage by LC-MS/MS analysis; assay type: ADME, organism-based; details: in vivo
[22] = Drug level in plasma of Sprague-Dawley rat at 10 mg/kg, po administered as single dose via gavage measured at 32 hrs by LC-MS/MS analysis; assay type: ADME, organism-based
[23] = Drug level in liver of Sprague-Dawley rat at 10 mg/kg, po administered as single dose via gavage measured at 32 hrs by LC-MS/MS analysis; assay type: ADME, organism-based; details: read-out: Drug uptake
[24] = Drug level in brain of Sprague-Dawley rat at 10 mg/kg, po administered as single dose via gavage measured at 32 hrs by LC-MS/MS analysis; assay type: ADME, organism-based; details: read-out: Drug uptake

Drug metabolism [2] [nmol/min/mg] | SMILES | IC50 [1] [nM] | Vd [3] [L/kg] | clearance [4] [L/h/kg] | half-life [5] [h] | concentration at 8 h [6] [µM] | concentration at 24 h [7] [µM] | concentration at 2 h [8] [µM] | concentration at 4 h [9] [µM] | Kp [10] | IC50 [11] [nM] | selectivity ratio (CYP2C9 [12]) | selectivity ratio (CYP2D6 [13]) | selectivity ratio (CYP3A4 [14]) | selectivity ratio (CYP3A4 [15]) | selectivity ratio (CYP2C9 [16]) | selectivity ratio (CYP2D6 [17]) | concentration at 32 h [22] [µM] | concentration at 32 h [23] [µM] | concentration at 32 h [24] [µM] | further results
0.04 | O=C(N[C@H]1CC/C(=C\c2cccc(Oc3ccc(C(F)(F)F)cn3)c2)CC1)c1cccnc1 (stereo unspecified) | 0.7 | 0.9 | 0.144 | 5.1 | 3 | 0.5 | 6.1 | 6 | 1.5 | – | – | – | – | – | – | – | – | – | – | –
0.06 to 0.07 | Cc1cc(C(=O)N[C@H]2CC/C(=C\c3cccc(Oc4ccc(C(F)(F)F)cn4)c3)CC2)cnc1N (stereo unspecified) | 1.3 | 1.2 | 0.048 | 17 | 5.3 | 3.3 | 2 | 3.1 | 0.5 | 9.2 | > 5000 | > 5000 | > 5000 | > 5000 | > 5000 | > 5000 | 3 | 20 | 1.2 | selectivity ratio (CYP3A4 [18]): > 5000; selectivity ratio (CYP3A4 [19]): > 5000; Ratio IC50 [20]: > 10000; Drug uptake [21]: 50 to 80%
– | Nc1ccc(C(=O)N[C@H]2CC/C(=C\c3cccc(Oc4ccc(C(F)(F)F)cn4)c3)CC2)cn1 (stereo unspecified) | 1.2 | 0.6 | 0.042 | 9.2 | 8.2 | 4.4 | 5.1 | 4.5 | 0.6 | 11.6 | – | – | – | – | – | – | 2.2 | 26.5 | 1.9 | –

SMILES | Drug metabolism [2] [nmol/min/mg] | IC50 [1] [nM] | Vd [3] [L/kg] | clearance [4] [L/h/kg] | half-life [5] [h] | concentration at 8 h [6] [µM] | concentration at 24 h [7] [µM] | concentration at 2 h [8] [µM] | concentration at 4 h [9] [µM] | Kp [10] | IC50 [11] [nM] | selectivity ratio (CYP2C9 [12]) | selectivity ratio (CYP2D6 [13]) | selectivity ratio (CYP3A4 [14]) | selectivity ratio (CYP3A4 [15]) | selectivity ratio (CYP2C9 [16]) | selectivity ratio (CYP2D6 [17]) | concentration at 32 h [22] [µM] | concentration at 32 h [23] [µM] | concentration at 32 h [24] [µM] | further results
Nc1ncc(C(=O)N[C@H]2CC/C(=C\c3cccc(Oc4ccc(C(F)(F)F)cn4)c3)CC2)cn1 (stereo unspecified) | ≤ 0.04 | 0.6 | 0.8 | 0.036 | 17.2 | 7.3 | 7 | 6.5 | 6.3 | 0.8 | 6.2 | > 5000 | > 5000 | > 5000 | > 5000 | > 5000 | > 5000 | 2.7 | 13 | 2.3 | selectivity ratio (CYP3A4 [18]): > 5000; selectivity ratio (CYP3A4 [19]): > 5000; Ratio IC50 [20]: > 10000; Drug uptake [21]: 50 to 80%
